Measured values reported in patent US20210283107A1, “Methods to Expand the Spectrum of Gram-Positive Antibiotics” (NORTH CAROLINA STATE UNIVERSITY, priority 2016, published 2021).
≈ marks a conversion by molar mass, not a printed value.

What was measured:
[1] = test system: A. baumannii mutant AB1310; assay: MIC against Tn-seq transposon mutant AB1310; type: cell-based; settings: Acinetobacter baumannii
Experimental: (§1) During individual MIC screening, two mutants, AB522 and AB1310, were identified due to their increased sensitivity to the three macrolide antibiotics and vancomycin when compared to AB 5075 (Table 17).
(§2) Day Cultures (6 h) were subcultured to 5×10^5 CFU/mL in cation adjusted Mueller-Hinton broth (CAMHB). Aliquots (1 mL) were placed in culture tubes, and compound was added from 100 mM stock solutions, such that the compound concentration equaled the highest concentration tested (200 μM or 64 μg/mL). Samples were then aliquoted (200 μL) into the first row of wells of a 96-well plate, with all remaining wells being filled with 100 μL of initial bacterial subculture. The wells in row one were mixed five times before 100 μL was transferred to the following row (row two). Row two was then mixed five times, and 100 μL was transferred to row three. This processed was repeated until the final row had been mixed. This process provided a serial dilution of the compound. Plates were covered with Glad Press n'Seal and were incubated under stationary conditions at 37° C. for 16 hours. MIC values were recorded as the lowest concentration at which no bacterial growth was observed.

A. baumannii strain 4052 = assay: Potentiation of clarithromycin and vancomycin against clinical isolate; type: cell-based, Acinetobacter baumannii; settings: antibiotic alone
Experimental: (§3) As previously stated, A. baumannii 5075 was chosen for these studies due to its virulence and multidrug resistance, but to further analyze the activity of our lead compounds, 23 A. baumannii clinical isolates obtained from Walter Reed Army Institute of Research (WRAIR) were tested.
(§4) Day Cultures (6 h) were subcultured to 5×10^5 CFU/mL in cation adjusted Mueller-Hinton broth (CAMHB). […] One milliliter of the resulting solution was aliquoted into a separate culture tube and was dosed with antibiotic so that the resulting concentration was the highest desirable concentration to be tested. Bacteria treated with antibiotic alone were used as a control. Row one of a 96-well plate was filled with 200 μL of the antibiotic/compound solution, and the remaining rows were filled with 100 μL of the remaining 4 mL bacterial subculture. The wells in row one were mixed five times before 100 μL was transferred to the following row (row two). Row two was then mixed five times, and 100 μL was transferred to row three. This process was repeated until the second to last row had been reached. The last row is left unexposed to antibiotic in order to serve as a negative control. The antibiotic only treated bacteria was plated by aliquoting 200 μL of the treated bacteria into row one and filling the remaining rows with untreated bacteria from the original bacteria subculture. The rows were mixed in the same way as described above. Plates were covered with Glad Press n'Seal and were incubated under stationary conditions at 37° C. for 16 hours. MIC values were recorded as the lowest concentration at which no bacterial growth was observed. Fold reductions were determined by comparison of the compound treated wells with the antibiotic only treated control wells.

A. baumannii strain 4498 = assay: as above; type: cell-based, Acinetobacter baumannii; settings: antibiotic alone
Experimental: as §3, §4

A. baumannii strain 4269 = assay: as above; type: cell-based, Acinetobacter baumannii; settings: antibiotic alone
Experimental: as §3, §4

A. baumannii strain 4878 = assay: as above; type: cell-based, Acinetobacter baumannii; settings: antibiotic alone
Experimental: as §3, §4

A. baumannii strain 4026 = assay: as above; type: cell-based, Acinetobacter baumannii; settings: antibiotic alone
Experimental: as §3, §4

A. baumannii strain 4957 = assay: as above; type: cell-based, Acinetobacter baumannii; settings: antibiotic alone
Experimental: as §3, §4

A. baumannii strain 8967 = assay: as above; type: cell-based, Acinetobacter baumannii; settings: antibiotic alone
Experimental: as §3, §4

A. baumannii strain 4456 = assay: as above; type: cell-based, Acinetobacter baumannii; settings: antibiotic alone
Experimental: as §3, §4

A. baumannii strain 5197 = assay: as above; type: cell-based, Acinetobacter baumannii; settings: antibiotic alone
Experimental: as §3, §4

A. baumannii strain 4490 = assay: as above; type: cell-based, Acinetobacter baumannii; settings: antibiotic alone
Experimental: as §3, §4

A. baumannii strain 5001 = assay: as above; type: cell-based, Acinetobacter baumannii; settings: antibiotic alone
Experimental: as §3, §4

A. baumannii strain 4025 = assay: as above; type: cell-based, Acinetobacter baumannii; settings: antibiotic alone
Experimental: as §3, §4

A. baumannii strain 3785 = assay: as above; type: cell-based, Acinetobacter baumannii; settings: antibiotic alone
Experimental: as §3, §4

A. baumannii strain 3927 = assay: as above; type: cell-based, Acinetobacter baumannii; settings: antibiotic alone
Experimental: as §3, §4

A. baumannii strain 4991 = assay: as above; type: cell-based, Acinetobacter baumannii; settings: antibiotic alone
Experimental: as §3, §4

A. baumannii strain 5711 = assay: as above; type: cell-based, Acinetobacter baumannii; settings: antibiotic alone
Experimental: as §3, §4

A. baumannii strain 4027 = assay: as above; type: cell-based, Acinetobacter baumannii; settings: antibiotic alone
Experimental: as §3, §4

A. baumannii strain 4448 = assay: as above; type: cell-based, Acinetobacter baumannii; settings: antibiotic alone
Experimental: as §3, §4

A. baumannii strain 5256 = assay: as above; type: cell-based, Acinetobacter baumannii; settings: antibiotic alone
Experimental: as §3, §4

A. baumannii strain 3560 = assay: as above; type: cell-based, Acinetobacter baumannii; settings: antibiotic alone
Experimental: as §3, §4

A. baumannii strain 4795 = assay: as above; type: cell-based, Acinetobacter baumannii; settings: antibiotic alone
Experimental: as §3, §4

A. baumannii strain 3806 = assay: as above; type: cell-based, Acinetobacter baumannii; settings: antibiotic alone
Experimental: as §3, §4

[2] = test system: A. baumannii strain 5075 (AB5075); assay: Macrolide sensitization / antibiotic resensitization: antibiotic MIC in presence of compound (broth microdilution); type: cell-based, Acinetobacter baumannii
Experimental: A. baumannii 5075 was plated on LB agar, then grown in CAMHB for 6-8 h and this culture was used to inoculate fresh CAMHB (5×10^5 CFU/mL). The resulting suspension was aliquoted (5 mL) into culture tubes and compound, from 100 mM DMSO stock, was added. One aliquot was not treated (control). 1 mL of each sample was transferred to a new culture tube and antibiotic was added. Rows 2-12 of a 96-well microtiter plate were filled with 100 μL/well from the remaining 4 mL bacterial subcultures, allowing the concentration of compound to be kept uniform throughout the antibiotic dilution procedure. Samples containing antibiotic were aliquoted (200 μL) into the corresponding first row wells of the microtiter plate. Row 1 wells were mixed 6 to 8 times then 100 μL was withdrawn and transferred to row 2. Row 2 wells were mixed 6 to 8 times, followed by a 100 μL transfer from row 2 to row 3. This procedure was repeated to serially dilute the rest of the rows of the microtiter plate, with the exception of the final row, to which no antibiotic was added (to check for growth of bacteria in the presence of compound alone). The microtiter plate was then covered, placed in a covered damp plastic container and incubated under stationary conditions at 37° C. After 16-18 hrs minimum inhibitory concentration (MIC) values were recorded as the lowest concentration of antibiotic at which there was no visible growth of bacteria. Experiments were carried out in duplicate each time and repeated at least twice.
The difference in antibiotic MIC between the control (no compound) sample, and the samples containing each compound was recorded as the fold-reduction.
as §4

[3] = test system: A. baumannii mutant AB522; assay: MIC against Tn-seq transposon mutant AB522; type: cell-based; settings: Acinetobacter baumannii
Experimental: as §1, §2

A. baumannii strain 4857 = assay: Potentiation of clarithromycin and vancomycin against clinical isolate; type: cell-based, Acinetobacter baumannii; settings: antibiotic alone
Experimental: as §3, §4

AB5075 [4] = assay: G. mellonella model infected with AB5075, survival; type: in vivo, Galleria mellonella
Experimental: Galleria mellonella larvae (Speedy Worm, Alexandria, Minn.) were used within ten days of shipment from the vendor. After reception of worms, larvae were kept in the dark at room temperature for at least 24 h before infection. Larvae weighing between 200 to 300 mg were used in the survival assay. Using a 10 μL glass syringe (Hamilton, Reno, Nev.) fitted with a 30 G needle (Exel International, St. Petersburg, Fl), 5 μL of the desired compound and concentration were injected into the last left proleg. After 2.5 h, a second 5 μL injection containing 6×10^5 CFU of Acinetobacter baumannii 5075 was injected into the second to last left proleg. Injected worms were left at room temperature in the dark while being assessed at 24 h intervals over 6 days. […] Experiment was repeated 7 times using 10 larvae per experimental group.

AB5075 [5] = assay: Checkerboard assay for FIC determination with colistin; type: cell-based, Acinetobacter baumannii; settings: chequerboard, ΣFIC≥2 considered antagonistic
Experimental: Against AB5075, we determined that the ΣFIC with compound 1 to be 17 and the ΣFIC with compound 10 to be 33. These ΣFIC values indicate that both compounds are highly antagonistic with colistin as a ΣFIC≥2 is considered antagonistic.
Day Cultures (6 h) of A. baumannii 5075 were subcultured to 5×10^5 CFU/mL in cation adjusted Mueller-Hinton broth (CAMHB). 100 μL of the inoculated media was distributed into all wells of a 96-well plate except well 1A. Inoculated CAMHB (200 μL) containing compound (twice the highest concentration tested) was added to well 1A, and 100 μL of the same sample was added to wells 2A-12A. The contents in column A were mixed five times before 100 μL was transferred to column B. The contents of column B were mixed 5 times before transferring to column C. This process was repeated with the remainder of the columns up to column G. Column H was not mixed to allow determination of the antibiotic MIC alone. […] Row 12 was not mixed so that the MIC of the compound alone could be determined. The MICs of both compound and antibiotic alone were recorded, as well as the wells containing the combination. The ΣFICs were calculated as follows: ΣFIC=FIC (Compound)+FIC (antibiotic), where FIC (compound) is the MIC of the compound in the combination/MIC of the compound alone and the FIC (antibiotic) is the MIC of the antibiotic in combination/the MIC of the antibiotic alone. […]

[6] = test system: A. baumannii strain 5075 (AB5075); assay: Broth microdilution MIC determination of compound alone; type: cell-based; settings: Acinetobacter baumannii; compound alone; AB5075; read-out: MIC
Experimental: Our initial screening began by testing a diverse selection of 2-AI compounds from our internal library for their minimal inhibitory concentrations (MIC) against A. baumannii isolate 5075.
as §2

Row | SMILES | MIC [1] | MIC (μg/mL) of the antibiotic (A. baumannii strain 4498) | MIC (μg/mL) of the antibiotic (A. baumannii strain 4026) | MIC (μg/mL) of the antibiotic (A. baumannii strain 8967) | MIC (μg/mL) of the antibiotic (A. baumannii strain 5197) | MIC (μg/mL) of the antibiotic (A. baumannii strain 4025) | MIC (μg/mL) of the antibiotic (A. baumannii strain 3785) | MIC (μg/mL) of the antibiotic (A. baumannii strain 5711) | MIC (μg/mL) of the antibiotic (A. baumannii strain 4027) | MIC (μg/mL) of the antibiotic (A. baumannii strain 3806) | MIC [3] | other results
1 | CN[C@H](CC(C)C)C(=O)N[C@H]1C(=O)N[C@@H](CC(N)=O)C(=O)N[C@H]2C(=O)N[C@H]3C(=O)N[C@H](C(=O)N[C@H](C(=O)O)c4cc(O)cc(O)c4-c4cc3ccc4O)[C@H](O)c3ccc(c(Cl)c3)Oc3cc2cc(c3O[C@@H]2O[C@H](CO)[C@@H](O)[C@H](O)[C@H]2O[C@H]2C[C@](C)(N)[C@H](O)[C@H](C)O2)Oc2ccc(cc2Cl)[C@H]1O [Vancomycin, reference compound] | 64 µg/mL (≈ 44.2 µM) | 512 µg/mL | 512 µg/mL | 512 µg/mL | 512 µg/mL | 512 µg/mL | 512 µg/mL | >512 µg/mL | 512 µg/mL | 256 µg/mL | 64 µg/mL (≈ 44.2 µM) | MIC (μg/mL) of the antibiotic (A. baumannii strain 4052): >512 µg/mL; MIC (μg/mL) of the antibiotic (A. baumannii strain 4269): 512 µg/mL; MIC (μg/mL) of the antibiotic (A. baumannii strain 4878): 512 µg/mL; MIC (μg/mL) of the antibiotic (A. baumannii strain 4957): 512 µg/mL; MIC (μg/mL) of the antibiotic (A. baumannii strain 4456): 512 µg/mL; MIC (μg/mL) of the antibiotic (A. baumannii strain 4490): 256 µg/mL; MIC (μg/mL) of the antibiotic (A. baumannii strain 5001): 512 µg/mL; MIC (μg/mL) of the antibiotic (A. baumannii strain 3927): 256 µg/mL; MIC (μg/mL) of the antibiotic (A. baumannii strain 4991): 512 µg/mL; MIC (μg/mL) of the antibiotic (A. baumannii strain 4448): 512 µg/mL; MIC (μg/mL) of the antibiotic (A. baumannii strain 5256): 512 µg/mL; MIC (μg/mL) of the antibiotic (A. baumannii strain 3560): 256 µg/mL; MIC (μg/mL) of the antibiotic (A. baumannii strain 4795): >512 µg/mL; MIC ([2]; Acinetobacter baumannii, read-out: MIC (μg/mL) of the antibiotic): 256 µg/mL
2 | CC[C@H]1OC(=O)[C@H](C)[C@@H](O[C@H]2C[C@@](C)(OC)[C@@H](O)[C@H](C)O2)[C@H](C)[C@@H](O[C@@H]2O[C@H](C)C[C@H](N(C)C)[C@H]2O)[C@](C)(OC)C[C@@H](C)C(=O)[C@H](C)[C@@H](O)[C@]1(C)O [Clarithromycin, reference compound] | 2 µg/mL (≈ 2.67 µM) | 64 µg/mL | 64 µg/mL | 16 µg/mL | 64 µg/mL | 64 µg/mL | 64 µg/mL | 64 µg/mL | 64 µg/mL | 16 µg/mL | 2 µg/mL (≈ 2.67 µM) | MIC (μg/mL) of the antibiotic (A. baumannii strain 4857): 64 µg/mL; survival after 6 days (AB5075 [4]; clarithromycin alone at 25 mg/kg): 1%
3 | Nc1nc(-c2ccc(NC(=O)c3c(Cl)cc(Cl)cc3Cl)cc2)c[nH]1 [Compound 10] |  |  |  |  |  |  |  |  |  |  |  | Fold reduction (erythromycin MIC) ([2]; compound at 30 μM vs antibiotic alone, AB5075): 8 fold; ΣFIC with colistin (AB5075 [5]): 33; MIC [6]: 100 µM (≈ 38.2 µg/mL)
4 | CO[C@H]1/C=C/O[C@@]2(C)Oc3c(C)c(O)c4c(O)c(c(/C=N/N5CCN(C)CC5)c(O)c4c3C2=O)NC(=O)/C(C)=C\C=C\[C@H](C)[C@H](O)[C@@H](C)[C@@H](O)[C@@H](C)[C@H](OC(C)=O)[C@@H]1C [rifampin, reference compound] |  |  |  |  |  |  |  |  |  |  |  | survival after 6 days (AB5075 [4]; rifampin at 30 mg/kg, one injection): 64%
